Assay results taken from the NIST ThermoML archive (doi:10.1021/je901071x).

Columns and labels:
[1] = xn = mol fraction of the nth substance listed; settings: 101 kPa, Liquid; for viscosity: Capillary tube (Ostwald / Ubbelohde) method; for mass density: Vibrating tube method
[2] = 101 kPa, Liquid; for viscosity: Capillary tube (Ostwald / Ubbelohde) method; for mass density: Vibrating tube method

CC(C)Cc1ccccc1 [(2-methylpropyl)benzene] + CCCOC=O
[1]
Settings	mass density, 303.15 K [kg/m3]	mass density, 308.15 K [kg/m3]	mass density, 313.15 K [kg/m3]	viscosity, 303.15 K [mPa·s]	viscosity, 308.15 K [mPa·s]	viscosity, 313.15 K [mPa·s]
x2 = 0	844.4	841.1	837.6	0.905	0.848	0.784
x2 = 0.1508	848.8	845.2	841.4	0.813	0.771	0.718
x2 = 0.287	853.3	849.5	845.6	0.743	0.706	0.661
x2 = 0.4072	857.9	854	850	0.687	0.654	0.614
x2 = 0.519	862.9	858.7	854.5	0.64	0.61	0.575
x2 = 0.6161	867.7	863.4	859.1	0.602	0.575	0.543
x2 = 0.708	872.9	868.5	864	0.569	0.544	0.515
x2 = 0.7895	878	873.4	868.8	0.54	0.519	0.492
x2 = 0.8656	883.2	878.4	873.7	0.516	0.497	0.471
x2 = 0.9341	888.3	883.4	878.6	0.495	0.476	0.451

CCCOC=O [propyl methanoate] + CCCCc1ccccc1
[1]
Settings	mass density, 303.15 K [kg/m3]	mass density, 308.15 K [kg/m3]	mass density, 313.15 K [kg/m3]	viscosity, 303.15 K [mPa·s]	viscosity, 308.15 K [mPa·s]	viscosity, 313.15 K [mPa·s]
x1 = 0.1483	854.7	851	847.3	0.823	0.772	0.723
x1 = 0.2855	858.4	854.6	850.7	0.753	0.71	0.667
x1 = 0.4066	862.2	858.2	854.3	0.696	0.658	0.619
x1 = 0.5164	866.2	862.1	858	0.649	0.616	0.58
x1 = 0.6148	870.3	866	861.8	0.609	0.579	0.546
x1 = 0.7042	874.5	870.1	865.8	0.575	0.547	0.517
x1 = 0.7884	879.1	874.5	869.9	0.545	0.52	0.491
x1 = 0.8642	883.8	879	874.2	0.519	0.497	0.47
x1 = 0.9339	888.6	883.7	878.7	0.498	0.476	0.451
x1 = 1	893.5	888.6	883.8	0.477	0.456	0.431

CCCOC=O [propyl methanoate] + c1ccccc1
[1]
Settings	mass density, 303.15 K [kg/m3]	mass density, 308.15 K [kg/m3]	mass density, 313.15 K [kg/m3]	viscosity, 303.15 K [mPa·s]	viscosity, 308.15 K [mPa·s]	viscosity, 313.15 K [mPa·s]
x1 = 0.0918	869.6	865.1	860.6	0.54	0.512	0.479
x1 = 0.1874	871.4	866.8	862.3	0.518	0.49	0.462
x1 = 0.2822	873.6	868.9	864.3	0.504	0.476	0.448
x1 = 0.3785	875.8	871.1	866.5	0.49	0.466	0.437
x1 = 0.4767	878.2	873.4	868.7	0.48	0.456	0.431
x1 = 0.5772	880.6	875.8	871.1	0.474	0.449	0.425
x1 = 0.6802	883.4	878.5	873.7	0.471	0.451	0.426
x1 = 0.7854	886.2	881.3	876.5	0.469	0.448	0.423
x1 = 0.8924	889.4	884.4	879.5	0.467	0.446	0.421
x1 = 1	893.5	888.6	883.8	0.477	0.456	0.431

CCCOC=O [propyl methanoate]
[2]
Settings	mass density [kg/m3]	viscosity [mPa·s]
303.15 K	893.5	0.477
308.15 K	888.6	0.456
313.15 K	883.8	0.431

CCCCc1ccccc1 [butylbenzene] + CCCOC=O
[1], x2 = 0
Settings	mass density [kg/m3]	viscosity [mPa·s]
303.15 K	851.3	0.901
308.15 K	848	0.844
313.15 K	844.6	0.787

c1ccccc1 [benzene]
[2]
Settings	mass density [kg/m3]	viscosity [mPa·s]
303.15 K	867.6	0.569
308.15 K	863.2	0.534
313.15 K	858.9	0.497

c1ccccc1 [benzene] + CCCOC=O
[1], x2 = 0
Settings	mass density [kg/m3]	viscosity [mPa·s]
303.15 K	867.6	0.569
308.15 K	863.2	0.534
313.15 K	858.9	0.497

CCCCc1ccccc1 [butylbenzene]
[2]
Settings	mass density [kg/m3]	viscosity [mPa·s]
303.15 K	851.3	0.901
308.15 K	848	0.844
313.15 K	844.6	0.787

CC(C)Cc1ccccc1 [(2-methylpropyl)benzene]
[2]
Settings	mass density [kg/m3]	viscosity [mPa·s]
303.15 K	844.4	0.905
308.15 K	841.1	0.848
313.15 K	837.6	0.784

CCCOC=O [propyl methanoate] + CC(C)Cc1ccccc1
[1], x1 = 1
Settings	mass density [kg/m3]	viscosity [mPa·s]
303.15 K	893.5	0.477
308.15 K	888.6	0.456
313.15 K	883.8	0.431

CCCOC=O [propyl methanoate] + CC(C)c1ccccc1
[1]
Settings	mass density, 303.15 K [kg/m3]	mass density, 308.15 K [kg/m3]	mass density, 313.15 K [kg/m3]	viscosity, 303.15 K [mPa·s]	viscosity, 308.15 K [mPa·s]	viscosity, 313.15 K [mPa·s]
x1 = 0.1349	856	852.1	848.2	0.652	0.617	0.58
x1 = 0.2617	859.5	855.4	851.4	0.617	0.585	0.551
x1 = 0.3812	863.3	859.1	855	0.585	0.557	0.526
x1 = 0.487	867.1	862.7	858.5	0.559	0.533	0.504
x1 = 0.5882	871	866.5	862.2	0.537	0.513	0.485
x1 = 0.6817	875.1	870.4	866	0.517	0.495	0.468
x1 = 0.7675	879.2	874.4	869.8	0.506	0.485	0.459
x1 = 0.8499	883.5	878.6	873.9	0.494	0.474	0.448
x1 = 0.9277	888.1	883	878.2	0.484	0.464	0.439
x1 = 1	893.5	888.6	883.8	0.477	0.456	0.431

CC(C)c1ccccc1 [isopropylbenzene] + CCCOC=O
[1], x2 = 0
Settings	mass density [kg/m3]	viscosity [mPa·s]
303.15 K	852.7	0.69
308.15 K	849	0.651
313.15 K	845.4	0.611

CC(C)c1ccccc1 [isopropylbenzene]
[2]
Settings	mass density [kg/m3]	viscosity [mPa·s]
303.15 K	852.7	0.69
308.15 K	849	0.651
313.15 K	845.4	0.611
